From US11331299B2, “Medicinal use of serrulatane diterpenes” (The University of Sydney, priority 2016, dated 2022)
Where two headings read alike, the source gives them in different places.

Test system: 280 human cancer cell lines
Test: OncoPanel cell proliferation assay (10-day)
Assay type: cell-based
Details: Homo sapiens; for EC50: read-out: Cell Count EC50; for GI50: read-out: Cell Count GI50; for IC50: read-out: Cell Count IC50
[1] = Caov-3, CaOV3, Female GU - Ovary
[2] = ChaGo-K-1, ChaGoK1, Lung - NSCLC
[3] = D341 Med, CNS - Medulloblastoma
[4] = Detroit 562, Detroit 562, Head and Neck
[5] = DoTc2-4510, DoTc2 4510, Lymphoma
[6] = G292, G-292, clone A141B1, Soft Tissue - Osteosarcoma
[7] = HEL 92.1.7, HEL-92-1-7, Leukemia
[8] = HOS, Soft Tissue - Osteosarcoma
[9] = HT-1080, HT-1080, Soft Tissue - Sarcoma
[10] = HUH-6-clone5, HUH-6 Clone 5, Liver
[11] = Hs 821.T, Soft Tissue - Sarcoma
[12] = Hs 888.Sk, Soft Tissue - Osteosarcoma

CC(C)=CCC[C@H](C)[C@@H]1CC[C@@H](C)c2c1cc(C)c(O)c2O [Compound 4, 7,8-dihydroxyserrulat-14-ene]
EC50 [1]: 10.2 µM
GI50 [1]: 10.2 µM
IC50 [1]: 10.3 µM
EC50 (Capan-2, Capan-2, Pancreas): 24.8 µM
GI50 (Capan-2, Capan-2, Pancreas): 24.7 µM
IC50 (Capan-2, Capan-2, Pancreas): 24.8 µM
EC50 [2]: 8.92 µM
GI50 [2]: 8.82 µM
IC50 [2]: 8.92 µM
EC50 [3]: 8.57 µM
GI50 [3]: 8.4 µM
IC50 [3]: 8.57 µM
EC50 (DB, Lymphoma): 3.85 µM
GI50 (DB, Lymphoma): 3.84 µM
IC50 (DB, Lymphoma): 3.85 µM
EC50 (DBTRG-05MG, CNS - Glioma): 17.6 µM
GI50 (DBTRG-05MG, CNS - Glioma): 17.4 µM
IC50 (DBTRG-05MG, CNS - Glioma): 17.6 µM
EC50 (DK-MG, CNS - Glioma): 17.2 µM
GI50 (DK-MG, CNS - Glioma): 16.4 µM
IC50 (DK-MG, CNS - Glioma): 17.2 µM
EC50 (DLD-1, DLD-1, Colon): 15.7 µM
GI50 (DLD-1, DLD-1, Colon): 15.7 µM
IC50 (DLD-1, DLD-1, Colon): 15.7 µM
EC50 (DMS-53, DMS53, Lung - SCLC): 8.95 µM
GI50 (DMS-53, DMS53, Lung - SCLC): 8.6 µM
IC50 (DMS-53, DMS53, Lung - SCLC): 8.95 µM
EC50 (DMS-114, DMS114, Lung - SCLC): 11.5 µM
GI50 (DMS-114, DMS114, Lung - SCLC): 11.4 µM
IC50 (DMS-114, DMS114, Lung - SCLC): 11.6 µM
EC50 (DOHH-2, DOHH-2, Lymphoma): 2.24 µM
GI50 (DOHH-2, DOHH-2, Lymphoma): 2.24 µM
IC50 (DOHH-2, DOHH-2, Lymphoma): 2.24 µM
EC50 (DU-145, DU145, Prostate): 18.1 µM
GI50 (DU-145, DU145, Prostate): 18.1 µM
IC50 (DU-145, DU145, Prostate): 18.1 µM
EC50 (Daoy, CNS - Medulloblastoma): 3.19 µM
GI50 (Daoy, CNS - Medulloblastoma): 3.19 µM
IC50 (Daoy, CNS - Medulloblastoma): 3.19 µM
EC50 (Daudi, Lymphoma): 2.28 µM
GI50 (Daudi, Lymphoma): 2.28 µM
IC50 (Daudi, Lymphoma): 2.28 µM
EC50 [4]: 25 µM
GI50 [4]: 25 µM
IC50 [4]: 25 µM
EC50 [5]: 9.23 µM
GI50 [5]: 9.09 µM
IC50 [5]: 9.23 µM
EC50 (EB2, Lymphoma): 8.35 µM
GI50 (EB2, Lymphoma): 8.32 µM
IC50 (EB2, Lymphoma): 8.38 µM
EC50 (EB-3, Lymphoma): 3.93 µM
GI50 (EB-3, Lymphoma): 3.93 µM
IC50 (EB-3, Lymphoma): 3.93 µM
EC50 (EFM-19, EFM-19, Breast): 11.9 µM
GI50 (EFM-19, EFM-19, Breast): 11.3 µM
IC50 (EFM-19, EFM-19, Breast): 11.9 µM
EC50 (EM-2, Leukemia): 3.99 µM
GI50 (EM-2, Leukemia): 4 µM
IC50 (EM-2, Leukemia): 4 µM
EC50 (FaDu, Head and Neck): 8.28 µM
GI50 (FaDu, Head and Neck): 8.28 µM
IC50 (FaDu, Head and Neck): 8.28 µM
EC50 [6]: 6.23 µM
GI50 [6]: 6.07 µM
IC50 [6]: 6.25 µM
EC50 (G-361, G-361, Skin (Melanoma)): 13.8 µM
GI50 (G-361, G-361, Skin (Melanoma)): 13.8 µM
IC50 (G-361, G-361, Skin (Melanoma)): 13.9 µM
EC50 (G-401, G-401, Kidney): 8.08 µM
GI50 (G-401, G-401, Kidney): 8.05 µM
IC50 (G-401, G-401, Kidney): 8.08 µM
EC50 (GA-10, GA-10, Lymphoma): 1.23 µM
GI50 (GA-10, GA-10, Lymphoma): 1.23 µM
IC50 (GA-10, GA-10, Lymphoma): 1.23 µM
EC50 (H4, CNS - Glioma): 13 µM
GI50 (H4, CNS - Glioma): 13 µM
IC50 (H4, CNS - Glioma): 13 µM
EC50 (HCT-15, HCT-15, Colon): 13.4 µM
GI50 (HCT-15, HCT-15, Colon): 13.4 µM
IC50 (HCT-15, HCT-15, Colon): 13.4 µM
EC50 (HCT-116, HCT-116, Colon): 10.3 µM
GI50 (HCT-116, HCT-116, Colon): 10.3 µM
IC50 (HCT-116, HCT-116, Colon): 10.3 µM
EC50 (HEC-1-A, Female GU - Uterus): 12.3 µM
GI50 (HEC-1-A, Female GU - Uterus): 12.2 µM
IC50 (HEC-1-A, Female GU - Uterus): 12.3 µM
EC50 [7]: 4.05 µM
GI50 [7]: 4.05 µM
IC50 [7]: 4.05 µM
EC50 (HLE, Liver): 7.24 µM
GI50 (HLE, Liver): 7.15 µM
IC50 (HLE, Liver): 7.24 µM
EC50 (HLF, Liver): 8.72 µM
GI50 (HLF, Liver): 8.7 µM
IC50 (HLF, Liver): 8.74 µM
EC50 (HMCB, Skin (Melanoma)): 9.49 µM
GI50 (HMCB, Skin (Melanoma)): 9.38 µM
IC50 (HMCB, Skin (Melanoma)): 9.49 µM
EC50 [8]: 3.08 µM
GI50 [8]: 3.08 µM
IC50 [8]: 3.08 µM
EC50 (HPAF-II, Pancreas): 12.4 µM
GI50 (HPAF-II, Pancreas): 12.4 µM
IC50 (HPAF-II, Pancreas): 12.5 µM
EC50 (HT1197, HT-1197, Bladder): 15.6 µM
GI50 (HT1197, HT-1197, Bladder): 15.2 µM
IC50 (HT1197, HT-1197, Bladder): 15.6 µM
EC50 (HT, Lymphoma): 4.49 µM
GI50 (HT, Lymphoma): 4.46 µM
IC50 (HT, Lymphoma): 4.49 µM
EC50 (HT-3, Female GU - Cervix): 14.5 µM
GI50 (HT-3, Female GU - Cervix): 14.3 µM
IC50 (HT-3, Female GU - Cervix): 14.5 µM
EC50 (HT-29, HT-29, Colon): 17 µM
GI50 (HT-29, HT-29, Colon): 17 µM
IC50 (HT-29, HT-29, Colon): 17 µM
EC50 [9]: 4.42 µM
GI50 [9]: 4.42 µM
IC50 [9]: 4.42 µM
EC50 (HT-1376, HT1376, Bladder): 14.1 µM
GI50 (HT-1376, HT1376, Bladder): 13.8 µM
IC50 (HT-1376, HT1376, Bladder): 14.1 µM
EC50 [10]: 9.63 µM
GI50 [10]: 9.46 µM
IC50 [10]: 9.63 µM
EC50 (HeLa, Female GU - Cervix): 21.1 µM
GI50 (HeLa, Female GU - Cervix): 21.1 µM
IC50 (HeLa, Female GU - Cervix): 21.1 µM
EC50 (HepG2, HepG2, Liver): 25.6 µM
GI50 (HepG2, HepG2, Liver): 25.6 µM
IC50 (HepG2, HepG2, Liver): 25.7 µM
EC50 (Hs 229.T, Lung - NSCLC): 25.9 µM
GI50 (Hs 229.T, Lung - NSCLC): 25.2 µM
IC50 (Hs 229.T, Lung - NSCLC): 26.3 µM
EC50 (Hs 294T, Skin (Melanoma)): 8.33 µM
GI50 (Hs 294T, Skin (Melanoma)): 8.23 µM
IC50 (Hs 294T, Skin (Melanoma)): 8.33 µM
EC50 (Hs 445, Hs 445, Lymphoma): 5.8 µM
GI50 (Hs 445, Hs 445, Lymphoma): 5.74 µM
IC50 (Hs 445, Hs 445, Lymphoma): 5.8 µM
EC50 (Hs 611.T, Lymphoma): 5.11 µM
GI50 (Hs 611.T, Lymphoma): 5.05 µM
IC50 (Hs 611.T, Lymphoma): 5.11 µM
EC50 (Hs 683, Hs 683, CNS - Glioma): 24.5 µM
GI50 (Hs 683, Hs 683, CNS - Glioma): 24.3 µM
IC50 (Hs 683, Hs 683, CNS - Glioma): 24.6 µM
EC50 (Hs 688(A).T, Skin (Melanoma)): 7.43 µM
GI50 (Hs 688(A).T, Skin (Melanoma)): 6.88 µM
IC50 (Hs 688(A).T, Skin (Melanoma)): 7.68 µM
EC50 (Hs746T, HS 746T, Stomach): 20 µM
GI50 (Hs746T, HS 746T, Stomach): 17.1 µM
IC50 (Hs746T, HS 746T, Stomach): 20 µM
EC50 (Hs766T, Hs 766T, Pancreas): 9.34 µM
GI50 (Hs766T, Hs 766T, Pancreas): 9.08 µM
IC50 (Hs766T, Hs 766T, Pancreas): 9.34 µM
EC50 [11]: 12.6 µM
GI50 [11]: 9.99 µM
IC50 [11]: 12.9 µM
EC50 [12]: 12.3 µM
GI50 [12]: 12.1 µM
IC50 [12]: 12.7 µM
EC50 (Hs 934.T, Skin (Melanoma)): 11.1 µM
GI50 (Hs 934.T, Skin (Melanoma)): 10.2 µM
IC50 (Hs 934.T, Skin (Melanoma)): 11.6 µM
EC50 (Hs 936.T(C1), Skin (Melanoma)): 9.1 µM
GI50 (Hs 936.T(C1), Skin (Melanoma)): 10.2 µM
IC50 (Hs 936.T(C1), Skin (Melanoma)): 10.4 µM
EC50 (Hs-578T, Hs 578T, Breast): 15 µM
GI50 (Hs-578T, Hs 578T, Breast): 14.9 µM
IC50 (Hs-578T, Hs 578T, Breast): 15 µM
EC50 (HuCCT-1, HuCCT1, Liver): 24.8 µM
GI50 (HuCCT-1, HuCCT1, Liver): 24.8 µM
IC50 (HuCCT-1, HuCCT1, Liver): 24.8 µM
EC50 (HuP-T4, HuP-T4, Pancreas): 13.7 µM
GI50 (HuP-T4, HuP-T4, Pancreas): 13.6 µM
IC50 (HuP-T4, HuP-T4, Pancreas): 13.7 µM
EC50 (J82, Bladder): 6.22 µM
GI50 (J82, Bladder): 6.09 µM
IC50 (J82, Bladder): 6.22 µM
EC50 (JAR, Placenta): 6.53 µM
GI50 (JAR, Placenta): 6.49 µM
IC50 (JAR, Placenta): 6.53 µM
EC50 (JEG-3, JEG-3, Placenta): 6.5 µM
GI50 (JEG-3, JEG-3, Placenta): 6.48 µM
IC50 (JEG-3, JEG-3, Placenta): 6.51 µM
EC50 (JIYOYE, Lymphoma): 3.55 µM
GI50 (JIYOYE, Lymphoma): 3.55 µM
IC50 (JIYOYE, Lymphoma): 3.55 µM
EC50 (JeKo-1, JeKo-1, Lymphoma): 3.91 µM
GI50 (JeKo-1, JeKo-1, Lymphoma): 3.91 µM
IC50 (JeKo-1, JeKo-1, Lymphoma): 3.91 µM
EC50 (Jurkat, Leukemia): 3.59 µM
GI50 (Jurkat, Leukemia): 3.58 µM
IC50 (Jurkat, Leukemia): 3.59 µM
EC50 (K562, K562, Leukemia): 12.2 µM
GI50 (K562, K562, Leukemia): 12.2 µM
IC50 (K562, K562, Leukemia): 12.2 µM
EC50 (KATO III, Stomach): 10.9 µM
GI50 (KATO III, Stomach): 11.1 µM
IC50 (KATO III, Stomach): 11.1 µM
EC50 (KHOS-240S, Soft Tissue - Osteosarcoma): 4.96 µM
